Source: patent US20260364175A1, “COMPOSITIONS FOR DRUG ADMINISTRATION” (Aegis Therapeutics, LLC, priority 2018, published 2026)
Like-named read-outs stand apart in the source and are kept apart here.

What was measured:
[1] = test system: Candida albicans (ATCC No. 10231); assay: Antimicrobial activity, log reduction of cfu; format: cell-based
From the text: (§1) The viable microorganisms used in the invention were not more than five passages removed from the original ATCC culture. As described herein, one passage is defined as the transfer of organisms from an established culture to fresh medium and all transfers are counted.
(§2) Cultures received from the ATCC are resuscitated according to the directions provided by the ATTC. Cells grown in broth were pelleted by centrifugation, resuspended in 1/20th the volume of fresh maintenance broth, and combined with an equal volume of 20% (v/v in water) sterile glycerol. Cells grown on agar were scraped from the surface into the maintenance broth also containing 10% glycerol broth. Small aliquots of the suspension were dispensed into sterile vials and the vials were stored in liquid nitrogen or in a mechanical freezer at a temperature no higher than about −50 °C. When a fresh seed-stock vial was required, it was removed and used to inoculate a series of working stock cultures. These working stock cultures were then used periodically (each day in the case of bacteria and yeast) to start the inoculum culture.
(§3) The culture conditions for the inoculum culture is substantially as described in Table IV. For example, suitable media can include but is not limited to, Soybean-Casein Digest or Sabouraud Dextrose Agar Medium. […]
(§4) The suspension should be refrigerated if it is not used within 2 hours. To confirm the initial cfu per mL estimate, the number of cfu per mL in each suspension was determined using the conditions of media and microbial recovery incubation times listed in Table IV (e.g., from about 3 to about 7 days). This value serves to calibrate the size of inoculum used in the test. The bacterial and yeast suspensions were used within 24 hours of harvest; whereas the fungal preparation can be stored under refrigeration for up to 7 days.
(§5) To determine which alkylglycoside formulations have antibacterial activity, the formulations were prepared in phosphate buffered saline (PBS) at pH 7. As a source of nutrition, either 1.5 mg/mL bovine serum albumin (BSA; see Tables V and VI) or 1 mg/mL of PYY was added (see Table VII) to the medium. BSA (CAS Number: 9048-46-8) was obtained from Sigma-Aldrich, St. Louis, MO, USA, n-dodecyl-4-O-α-D-glucopyranosyl-β-D-glucopyranoside and n-tetradecyl-4-O-α-D-glucopyranosyl-β-D-glucopyranoside were obtained from Anatrace Inc., Maumee, OH, USA, and PYY was obtained from Bachem California Inc., Torrance, CA, USA.
(§6) Antibacterial activity of the alkylglycosides were conducted in four sterile, capped bacteriological containers of suitable size into which a sufficient volume of alkylglycoside solution had been transferred. Each container was inoculated with one of the prepared and standardized inoculums and mixed. The volume of the suspension inoculum was between about 0.5% and about 1.0% of the volume of the alkylglycoside solution. […]. To determine the level of inhibition of growth, or reduction of growth based on a logarithmic scale, the initial concentration of viable microorganisms in each test preparation was estimated based on the concentration of microorganisms in each of the standardized inoculum as determined by the plate-count method. The inoculated containers were then incubated at about 22.5 °C±2.5. The growth or non-growth of the microorganisms in each culture/container were again determined at day 14 and day 28. The number of cfu present in each calculation was determined by the plate-count procedure standard in the art for the applicable intervals. The change in the orders of magnitude of bacterium and/or fungi was then determined by subtracting the first calculated log 10 values of the concentrations of cfu per mL present at the start or beginning (e.g., day 0), from the log 10 values of the concentration of cfu per mL for each microorganism at the applicable test intervals (e.g., day 14 and day 28; see Tables V, VI and VII).

[2] = test system: Aspergillus niger (ATCC No. 16404); assay: Antimicrobial activity, log reduction of cfu; format: cell-based; details: for log reduction at […]: Aspergillus niger
From the text: as §1, §2, §3, §4, §5, §6

[3] = test system: Staphylococcus aureus (ATCC No. 6538); assay: Antibacterial activity, log reduction of cfu; format: cell-based
From the text: as §1, §2, §3, §4, §5, §6

[4] = test system: Escherichia coli (ATCC No. 8739); assay: Antibacterial activity, log reduction of cfu; format: cell-based; details: Escherichia coli
From the text: as §1, §2, §3, §4, §5, §6

[5] = rat, in vivo
Procedure: Each set of drug solutions is administered to six groups of eight rats each by 20 uL instillation to a single nare of each animal. […] After the last blood sample is collected each animal is euthanized with CO2. […] Plasma samples are stored at −70 °C until analyzed. […] The concentration vs time data are plotted to determine the Cmax at each alkylsaccharide concentration and the ratio of Cmax with and without alkylsaccharide present is calculated and recorded as shown in Table XIX.

[6] = Oral phenylephrine tablet bioavailability in a canine model; format: in vivo, dog; details: compressed tablets
Procedure: In a canine model, subjects were dosed orally with various phenylephrine (PE) tablet formulations, and blood samples were taken to determine the rate of parent phenyl ethyl phenylephrine absorption. Blood levels of parent phenylephrine were measured. Three subject groups were created with each alkylsaccharide test group containing five subjects in each test group. All subject groups received 10 mg of phenylephrine as a single tablet. Each subject was in the fasting state for overnight and two hours post dose. Blood samples were taken at pre-dose, 5, 10, 15, 30, 45 min., 1, 2, and 3 hours.
Comparator was the standard 30 mg (total weight including excipients) phenylephrine tablet was no absorption enhancer. Group number 2 tablets contain the alkylsaccharide designated A3, which is n-dodecyl-beta-D-maltoside in the amounts of 2.5 mg, 5 mg, and 7.5 mg, respectively. Group number three tablets contain the alkylsaccharide designated B3, which is sucrose monododecanoate, in the amounts of 5 mg, 10 mg, and 20 mg, respectively.

blood glucose = assay: Ocular administration of insulin plus absorption enhancer, blood glucose in anesthetized rats; format: in vivo, rat (male Sprague-Dawley); details: for Blood Glucose: insulin eye drops + 0.50%

CCCCCCCCCCCCO[C@@H]1O[C@H](CO)[C@@H](O[C@H]2O[C@H](CO)[C@@H](O)[C@H](O)[C@H]2O)[C@H](O)[C@H]1O [Dodecyl Maltoside, n-Dodecyl-4-O-α-D-glucopyranosyl-β-D-glucopyranoside]
log reduction at […] ([1]; ATCC10231, 336 h): ≥ 4.5
log reduction at […] ([1]; ATCC10231, 336 h, read-out: log reduction of microorganisms): 3
log reduction at […] ([1]; ATCC10231, 672 h): ≥ 4.5
log reduction at […] ([1]; ATCC10231, 672 h, read-out: log reduction of microorganisms): ≥ 5.3
log reduction at […] ([2]; ATCC16404, 336 h): 4.7
log reduction at […] ([2]; ATCC16404, 336 h, read-out: log reduction of microorganisms): 0.7
log reduction at […] ([2]; ATCC16404, 672 h): 4.7
growth from initial count ([2]; […], day 28): No growth
log reduction at […] ([3]; ATCC6538, 336 h): ≥ 4.9
log reduction at […] ([3]; ATCC6538, 336 h, read-out: log reduction of microorganisms): ≥ 5.2
log reduction at […] ([3]; ATCC6538, 672 h): ≥ 4.9
log reduction at […] ([3]; ATCC6538, 672 h, read-out: log reduction of microorganisms): ≥ 5.2
log reduction at […] ([4]; ATCC8739, 336 h): ≥ 5
log reduction at […] ([4]; ATCC8739, 672 h): ≥ 5
log reduction at […] ([4]; ATCC8739, 672 h, read-out: log reduction of microorganisms): 0.1
Ratio Cmax(alkylsacch)/Cmax(No alkylsacch) [5]: ≥1.5
increase of oral bioavailability of phenylephrine [6]: up to 56%
effect on ocular insulin absorption (blood glucose; 0.5% and […] enhancer with insulin eye drops): equally effective
effect on blood glucose / ocular insulin absorption (blood glucose; 0.5% enhancer with 0.2% insulin eye drops): maintained in the normoglycemic (80-120 mg/dl) or near-normoglycemic (120-160 mg/dl) range
effect on ocular insulin absorption (alkyl chain length comparison) (blood glucose; alkylmaltosides with insulin eye drops): more effective
Blood Glucose (blood glucose; 0 min): 379 ± 4 mg/dL
Blood Glucose (blood glucose; 30 min): 297 ± 18 mg/dL
Blood Glucose (blood glucose; 60 min): 188 ± 25 mg/dL
Blood Glucose (blood glucose; 90 min): 141 ± 13 mg/dL
Blood Glucose (blood glucose; 120 min): 123 ± 5 mg/dL
Blood Glucose (blood glucose; -10 min (pre-dose)): 366 ± 12 mg/dL
Blood Glucose (blood glucose; -20 min (pre-dose)): 375 ± 9 mg/dL
